Assay results taken from patent US20220047606A1, “TREATMENT METHOD WITH IAP INHIBITOR” (Ascentage Pharma (Suzhou) Co., Ltd., priority 2019, published 2022).

Assays:
[1] = Phase I dose-escalation study (NCT03585322) in chronic hepatitis B patients: safety; format: in vivo, human
Method: (§1) Methods: This study (NCT number: NCT03585322) is a multi-center, single-agent, open-label, Phase I dose-escalation study. Chronic hepatitis B (CHB) patients without receiving anti-HBV treatment within 6 months before screening were recruited and administrated with Compound (I) weekly via intravenous infusion (IV) in 4 escalated dosage (7 mg, 12 mg, 20 mg and 30 mg) for 4 weeks followed with 12 weeks follow up. The primary objective of this study is to assess the safety, with secondary outcome measures focused on pharmacokinetics (PK) and Pharmacodynamics (PD) of Compound (I) as monotherapy in CHB patients.

[2] = Phase I dose-escalation study (NCT03585322) in chronic hepatitis B patients: pharmacokinetics; format: in vivo, human
Method: as §1

hepatitis B virus (HBV) = assay: Phase I dose-escalation study (NCT03585322) in chronic hepatitis B patients: pharmacodynamics (HBsAg, HBV DNA); format: in vivo, human
Method: as §1

[3] = Phase I dose-escalation study (NCT03585322) in chronic hepatitis B patients: other findings (Fibro test score, ALT normalization); format: in vivo, human; details: for Fibro Test Score Changes from baseline to end of follow-up, Mean(SD): 12 weeks follow up
Method: as §1

[4] = tested on: IAPs (inhibitor of apoptosis proteins); assay: Preclinical studies: IAP inhibition in vivo and in vitro
chronic HBV infections = assay: Preclinical studies: clearance of chronic HBV infection in different models
[5] = 7 mg weekly IV for 4 weeks, n = 3 CHB patients
[6] = 12 mg weekly IV for 4 weeks, n = 9 CHB patients
[7] = 20 mg weekly IV for 4 weeks, N = 6 CHB patients
[8] = 30 mg weekly IV for 4 weeks, N = 6 CHB patients

Structure (SMILES): CN[C@@H](C)C(=O)N[C@H]1CN(S(=O)(=O)c2cccc(S(=O)(=O)N3CC[C@H]4CC[C@@H](C(=O)NC(c5ccccc5)c5ccccc5)N4C(=O)[C@@H](NC(=O)[C@H](C)NC)C3)c2)CC[C@H]2CC[C@@H](C(=O)NC(c3ccccc3)c3ccccc3)N2C1=O [Compound (I), (5S ,5′S ,8S ,8′S,10aR,10a′R)-3,3′-(1,3-phenylenedisulfonyl)bis(N-benzhydryl-5-((S)-2-(methylamino)propanamido)-6-oxodecahydropyrrolo[1,2-a][1,5]diazocine-8-carboxamide)]
- Any Drug-Related TEAE (%) [1, 5]: (66.7%)
- Any Drug-Related TEAE N [1, 5]: 2
- SAE (%) [1, 5]: (0%)
- SAE N [1, 5]: 0
- Any Drug-Related TEAE (%) [1, 6]: (33.3%)
- Any Drug-Related TEAE N [1, 6]: 3
- SAE (%) [1, 6]: (0%)
- SAE N [1, 6]: 0
- Any Drug-Related TEAE (%) [1, 7]: (100.0%)
- Any Drug-Related TEAE N [1, 7]: 6
- SAE (%) [1, 7]: (0%)
- SAE N [1, 7]: 0
- patients with grade 2 facial nerve disorder ([1]; 30 mg cohort): 1 patient
- time to recovery from grade 2 facial nerve disorder ([1]; 30 mg cohort, 1 patient): ≤ 4 weeks
- Any Drug-Related TEAE (%) [1, 8]: (83.3%)
- Any Drug-Related TEAE N [1, 8]: 5
- SAE (%) [1, 8]: (16.7%)
- SAE N [1, 8]: 1
- drug-related adverse event: ALT increase, incidence ([1]; all cohorts 7-30 mg weekly IV): 26%
- drug-related adverse event: AST increase, incidence ([1]; all cohorts 7-30 mg weekly IV): 22%
- drug-related adverse event: infusion site pain, incidence ([1]; all cohorts 7-30 mg weekly IV): 15%
- drug-related adverse event: infusion site reaction, incidence ([1]; all cohorts 7-30 mg weekly IV): 15%
- drug-related adverse event: total bile acids increase, incidence ([1]; all cohorts 7-30 mg weekly IV): 15%
- patients with grade 3 ALT or AST elevation ([1]; all cohorts 7-30 mg weekly IV): Four
- safety and tolerability, overall ([1]; ascending doses from 7 mg to 30 mg): safe and well tolerated
- grade 3 ALT or AST elevation, extent ([1]; the four patients with grade 3 elevation): 5-15 × ULN
- PK analysis: plasma exposure versus dose ([2]; 7, 12, 20, 30 mg weekly IV): dose proportional increase in plasma exposure
- PK analysis: accumulation after multiple dosing ([2]; weekly IV for 4 weeks): no accumulation after multiple dosing
- patients with reduction of HBsAg at ≥0.5 log (hepatitis B virus (HBV); 5/26 patients): 19%
- patients with reduction of HBsAg at ≥0.2 log (hepatitis B virus (HBV); 12/26 patients): 46%
- patients with decline of HBV DNA (hepatitis B virus (HBV); 23 of 26 patients): 89%
- patients with prolonged HBsAg reduction (hepatitis B virus (HBV); during post-treatment follow-up, 11/23 patients): 48%
- patients with reduction of HBsAg (hepatitis B virus (HBV); week 4, 17 of 26 patients): 65%
- Fibro Test Score Changes from baseline to end of follow-up, Mean(SD) ([3]; 7 mg weekly IV for 4 weeks, N = 3): 0.27 kPa
- Fibro Test Score Changes from baseline to end of follow-up, Mean(SD) ([3]; 12 mg weekly IV for 4 weeks, N = 3): −1.80 kPa
- Fibro Test Score Changes from baseline to end of follow-up, Mean(SD) ([3]; 20 mg weekly IV for 4 weeks, N = 6): −0.33 kPa
- Fibro Test Score Changes from baseline to end of follow-up, Mean(SD) ([3]; 30 mg weekly IV for 4 weeks, N = 2): −4.05 kPa
- patients with ALT normalization ([3]; 10/22 patients): 46%
- inhibition of IAPs [4]: inhibits IAPs in vivo and in vitro
- clearance of chronic HBV infections (chronic HBV infections): can clear chronic HBV infections in different models
